Reference: patent US20160235727A1, “NOVEL PYRROLIDINE DERIVED BETA 3 ADRENERGIC RECEPTOR AGONISTS” (Merck Sharp & Dohme Corp., priority 2013, published 2016)
pEC50: −log10 of the molar value.

Molecular target: T1, human β3-AR (Homo sapiens, UniProt P13945)
T1 construct: expressed in transfected cells; host or cells: CHO (Chinese hamster ovary) cells, stably transfected
Experiment: cAMP functional agonist assay (LANCE TR-FRET) in CHO cells expressing cloned human β3-AR
Type: cell-based
Details: for pEC50: CHO cells stably expressing cloned human β3-adrenoceptor, cAMP release, read-out: Human β3-AR Agonism EC50; for Fold drop in potency vs. 2-chloropyridine analog: EC50 of comparative example divided by EC50 of corresponding 2-chloropyridine compound; for Human β3-AR Agonist Activity (%): percent maximum activation relative to isoproterenol

T1 sequence (P13945 whole entry): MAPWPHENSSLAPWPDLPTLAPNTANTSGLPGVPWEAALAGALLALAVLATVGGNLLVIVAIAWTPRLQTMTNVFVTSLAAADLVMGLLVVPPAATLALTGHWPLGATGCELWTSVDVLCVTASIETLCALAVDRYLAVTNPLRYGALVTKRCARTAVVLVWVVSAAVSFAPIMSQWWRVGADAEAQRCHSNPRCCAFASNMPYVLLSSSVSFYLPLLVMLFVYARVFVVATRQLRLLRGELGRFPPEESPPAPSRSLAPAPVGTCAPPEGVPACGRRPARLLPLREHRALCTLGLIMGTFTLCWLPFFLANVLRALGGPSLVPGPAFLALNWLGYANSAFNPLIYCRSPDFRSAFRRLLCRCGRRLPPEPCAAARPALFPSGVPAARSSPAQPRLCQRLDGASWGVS

| SMILES | pEC50 | Fold drop in potency vs. 2-chloropyridine analog | Human β3-AR Agonist Activity (%) |
| --- | --- | --- | --- |
| CN(Cc1cncc(C(=O)O)c1)C(=O)c1ccc(C[C@@H]2CC[C@H]([C@H](O)c3ccccc3)N2)cc1 [Example 33-B, 5-((4-(((2S,5R)-5-((R)-hydroxy(phenyl)methyl)pyrrolidin-2-yl)methyl)-N-methylbenzamido)methyl)nicotinic acid] | 7.06 | 87.0 fold | 111% |
| CN(Cc1cncc(C(=O)O)c1)C(=O)c1ccc(C[C@@H]2CC[C@H]([C@H](O)c3ccc(Cl)cc3)N2)cc1 [Example 33-G, 5-((4-(((2S,5R)-5-((R)-(4-chlorophenyl)(hydroxy)methyl)pyrrolidin-2-yl)methyl)-N-methylbenzamido)methyl)nicotinic acid] | 7.20 | 1.4 fold | 102% |
| COC(=O)c1cncc(CN(C)C(=O)c2ccc(C[C@@H]3CC[C@H]([C@H](O)c4ccc(Cl)nc4)N3)cc2)c1 [Example 34-A, Methyl 5-((4-(((2S,5R)-5-((R)-(6-chloropyridin-3-yl)(hydroxy)methyl)pyrrolidin-2-yl)methyl)-N-methylbenzamido)methyl)nicotinate] | 8.22 |  | 90% |
| COC(=O)c1cncc(CN(C)C(=O)c2ccc(C[C@@H]3CC[C@H]([C@H](O)c4ccccc4)N3)cc2)c1 [Example 34-B, Methyl 5-((4-(((2S,5R)-5-((R)-hydroxy(phenyl)methyl)pyrrolidin-2-yl)methyl)-N-methylbenzamido)methyl)nicotinate] | 7.85 | 2.3 fold | 101% |
| COC(=O)c1cncc(CN(C)C(=O)c2ccc(C[C@@H]3CC[C@H]([C@H](O)c4ccc(Cl)cc4)N3)cc2)c1 [Example 34-G, Methyl 5-((4-(((2S,5R)-5-((R)-(4-chlorophenyl)(hydroxy)methyl)pyrrolidin-2-yl)methyl)-N-methylbenzamido)methyl)nicotinate] | 7.74 | 2.9 fold | 90% |
| CN(Cc1cncc(C#N)c1)C(=O)c1ccc(C[C@@H]2CC[C@H]([C@H](O)c3ccc(Cl)nc3)N2)cc1 [Example 35-A, 4-(((2S,5R)-5-((R)-(6-chloropyridin-3-yl)(hydroxy)methyl)pyrrolidin-2-yl)methyl)-N-((5-cyanopyridin-3-yl)methyl)-N-methylbenzamide] | 7.77 |  | 91% |
| CN(Cc1cncc(C#N)c1)C(=O)c1ccc(C[C@@H]2CC[C@H]([C@H](O)c3ccccc3)N2)cc1 [Example 35-B, N-((5-cyanopyridin-3-yl)methyl)-4-(((2S,5R)-5-((R)-hydroxy(phenyl)methyl)pyrrolidin-2-yl)methyl)-N-methylbenzamide] | 7.21 | 3.6 fold | 102% |
| Cc1nnc(-c2cncc(CN(C)C(=O)c3ccc(C[C@@H]4CC[C@H]([C@H](O)c5ccc(Cl)nc5)N4)cc3)c2)o1 [Example 36-A, 4-(((2S,5R)-5-((R)-(6-chloropyridin-3-yl)(hydroxy)methyl)pyrrolidin-2-yl)methyl)-N-methyl-N-((5-(5-methyl-1,3,4-oxadiazol-2-yl)pyridin-3-yl)methyl)benzamide] | 7.85 |  | 92% |
| Cc1nnc(-c2cncc(CN(C)C(=O)c3ccc(C[C@@H]4CC[C@H]([C@H](O)c5ccccc5)N4)cc3)c2)o1 [Example 36-B, 4-(((2S,5R)-5-((R)-hydroxy(phenyl)methyl)pyrrolidin-2-yl)methyl)-N-methyl-N-((5-(5-methyl-1,3,4-oxadiazol-2-yl)pyridin-3-yl)methyl)benzamide] | 7.23 | 4.3 fold | 101% |
| CN(Cc1cncc(-c2nnn[nH]2)c1)C(=O)c1ccc(C[C@@H]2CC[C@H]([C@H](O)c3ccc(Cl)nc3)N2)cc1 [Example 37-A, N-((5-(1H-tetrazol-5-yl)pyridin-3-yl)methyl)-4-(((2S,5R)-5-((R)-(6-chloropyridin-3-yl)(hydroxy)methyl)pyrrolidin-2-yl)methyl)-N-methylbenzamide] | 7.57 |  | 94% |
| CN(Cc1cncc(-c2nn[nH]n2)c1)C(=O)c1ccc(C[C@@H]2CC[C@H]([C@H](O)c3ccccc3)N2)cc1 [Example 37-B, N-((5-(1H-tetrazol-5-yl)pyridin-3-yl)methyl)-4-(((2S,5R)-5-((R)-hydroxy(phenyl)methyl)pyrrolidin-2-yl)methyl)-N-methylbenzamide] | 7.20 | 2.4 fold | 101% |
| CN(Cc1cncc(F)c1)C(=O)c1ccc(C[C@@H]2CC[C@H]([C@H](O)c3ccc(Cl)nc3)N2)cc1 [Example 38-A, 4-(((2S,5R)-5-((R)-(6-chloropyridin-3-yl)(hydroxy)methyl)pyrrolidin-2-yl)methyl)-N-((5-fluoropyridin-3-yl)methyl)-N-methylbenzamide] | 8.10 |  | 58% |
| CN(Cc1cncc(F)c1)C(=O)c1ccc(C[C@@H]2CC[C@H]([C@H](O)c3ccccc3)N2)cc1 [Example 38-B, N-((5-fluoropyridin-3-yl)methyl)-4-(((2S,5R)-5-((R)-hydroxy(phenyl)methyl)pyrrolidin-2-yl)methyl)-N-methylbenzamide] | 8.15 | 0.9 fold | 100% |
| Cc1cc(CN(C)C(=O)c2ccc(C[C@@H]3CC[C@H]([C@H](O)c4ccc(Cl)nc4)N3)cc2)cnc1F [Example 39-A, 4-(((2S,5R)-5-((R)-(6-chloropyridin-3-yl)(hydroxy)methyl)pyrrolidin-2-yl)methyl)-N-((6-fluoro-5-methylpyridin-3-yl)methyl)-N-methylbenzamide] | 9.00 |  | 96% |
| Cc1cc(CN(C)C(=O)c2ccc(C[C@@H]3CC[C@H]([C@H](O)c4ccccc4)N3)cc2)cnc1F [Example 39-B] | 8.70 | 3.8 fold | 104% |
| Cc1cc(CN(C)C(=O)c2ccc(C[C@@H]3CC[C@H]([C@H](O)c4cccnc4)N3)cc2)cnc1F [Example 39-H] | 8.15 | 14.1 fold | 103% |
| CN(Cc1cnccn1)C(=O)c1ccc(C[C@@H]2CC[C@H]([C@H](O)c3ccc(Cl)nc3)N2)cc1 [Example 40-A, 4-(((2S,5R)-5-((R)-(6-chloropyridin-3-yl)(hydroxy)methyl)pyrrolidin-2-yl)methyl)-N-methyl-N-(pyrazin-2-ylmethyl)benzamide] | 7.92 |  | 111% |
| CN(Cc1cnccn1)C(=O)c1ccc(C[C@@H]2CC[C@H]([C@H](O)c3ccccc3)N2)cc1 [Example 40-B, 4-(((2S,5R)-5-((R)-hydroxy(phenyl)methyl)pyrrolidin-2-yl)methyl)-N-methyl-N-(pyrazin-2-ylmethyl)benzamide] | 7.77 | 1.5 fold | 99% |
| CN(Cc1cnccn1)C(=O)c1ccc(C[C@@H]2CC[C@H]([C@H](O)c3cccc(Cl)c3)N2)cc1 [Example 40-D, 4-(((2S,5R)-5-((R)-(3-chlorophenyl)(hydroxy)methyl)pyrrolidin-2-yl)methyl)-N-methyl-N-(pyrazin-2-ylmethyl)benzamide] | 6.25 | 48.6 fold | 86% |
| CN(Cc1cnccn1)C(=O)c1ccc(C[C@@H]2CC[C@H]([C@H](O)c3ccc(Cl)cc3)N2)cc1 [Example 40-G, 4-(((2S,5R)-5-((R)-(4-chlorophenyl)(hydroxy)methyl)pyrrolidin-2-yl)methyl)-N-methyl-N-(pyrazin-2-ylmethyl)benzamide] | 7.72 | 1.6 fold | 100% |
| CN(Cc1cnccn1)C(=O)c1ccc(C[C@@H]2CC[C@H]([C@H](O)c3cncc(F)c3)N2)cc1 [Example 40-R, 4-(((2S,5R)-5-((R)-(5-fluoropyridin-3-yl)(hydroxy)methyl)pyrrolidin-2-yl)methyl)-N-methyl-N-(pyrazin-2-ylmethyl)benzamide] | 6.43 | 32.0 fold | 87% |
| Cc1cc([C@@H](O)[C@H]2CC[C@@H](Cc3ccc(C(=O)N(C)Cc4cnccn4)cc3)N2)cnc1Cl [Example 40-S, 4-(((2S,5R)-5-((R)-(6-chloro-5-methylpyridin-3-yl)(hydroxy)methyl)pyrrolidin-2-yl)methyl)-N-methyl-N-(pyrazin-2-ylmethyl)benzamide] | 5.50 | 268.2 fold | 60% |
| CC(c1cnccn1)N(C)C(=O)c1ccc(C[C@@H]2CC[C@H]([C@H](O)c3ccc(Cl)nc3)N2)cc1 (stereo partly drawn) [Example 41-A, 4-(((2S,5R)-5-((R)-(6-chloropyridin-3-yl)(hydroxy)methyl)pyrrolidin-2-yl)methyl)-N-methyl-N-(1-(pyrazin-2-yl)ethyl)benzamide] | 8.70 |  | 98% |
| CC(c1cnccn1)N(C)C(=O)c1ccc(C[C@@H]2CC[C@H]([C@H](O)c3ccccc3)N2)cc1 (stereo partly drawn) [Example 41-B, 4-(((2S,5R)-5-((R)-hydroxy(phenyl)methyl)pyrrolidin-2-yl)methyl)-N-methyl-N-(1-(pyrazin-2-yl)ethyl)benzamide] | 7.80 | 9.1 fold | 109% |
| CC(c1cnccn1)N(C)C(=O)c1ccc(C[C@@H]2CC[C@H]([C@H](O)c3ccc(F)cc3)N2)cc1 (stereo partly drawn) [Example 41-F, 4-(((2S,5R)-5-((R)-(4-fluorophenyl)(hydroxy)methyl)pyrrolidin-2-yl)methyl)-N-methyl-N-(1-(pyrazin-2-yl)ethyl)benzamide] | 8.22 | 3.5 fold | 83% |
